# Activity calls are given as the source filed them.
# Key:
# Vero [1] = experiment: cells; assay type: functional, cell-based; conditions: Chlorocebus sabaeus
# [2] = viability of uninfected HEp-2 cells – cell-based, HTS, cytotoxicity control for RSV inhibitor project, dose response (AID 2410); assay type: functional; conditions: human respiratory syncytial virus
# Vero [3] = experiment: cells; assay type: functional; conditions: Chlorocebus sabaeus
# [4] = intracellular Trypanosoma cruzi inhibitors in host cells – cell-based, plate reader, cherry-pick samples, set 3, dose response (AID 651818); assay type: functional;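 further: compounds incubated with infected cells for about four days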
# [5] = target: Voltage-dependent T-type calcium channel subunit alpha-1H (Homo sapiens, UniProt O95180); assay type: functional;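 further: channel activity triggered by adding a high calcium stimulation buffer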
# Cytochrome P450 3A4 = Cytochrome P450 3A4 (Homo sapiens, UniProt P08684);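 further: CYP3A4 tested as one member of a cytochrome P450 panel screen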
# Cytochrome P450 3A4, sequence (P08684 whole entry): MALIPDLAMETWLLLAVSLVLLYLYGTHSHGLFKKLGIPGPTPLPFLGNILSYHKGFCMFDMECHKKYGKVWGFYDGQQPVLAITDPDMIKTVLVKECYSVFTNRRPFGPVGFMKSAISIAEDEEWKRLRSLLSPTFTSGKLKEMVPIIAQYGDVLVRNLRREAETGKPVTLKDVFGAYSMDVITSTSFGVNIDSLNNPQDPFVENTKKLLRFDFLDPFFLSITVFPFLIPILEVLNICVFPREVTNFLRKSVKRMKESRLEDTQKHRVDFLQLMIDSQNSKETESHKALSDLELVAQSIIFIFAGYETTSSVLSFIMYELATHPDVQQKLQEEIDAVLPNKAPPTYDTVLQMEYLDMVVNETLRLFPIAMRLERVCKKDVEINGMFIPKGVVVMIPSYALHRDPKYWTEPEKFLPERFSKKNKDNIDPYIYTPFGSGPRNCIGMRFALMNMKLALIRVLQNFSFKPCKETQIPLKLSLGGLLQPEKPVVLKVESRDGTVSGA
# Beta-galactosidase = Beta-galactosidase (Escherichia coli, UniProt Q8VNN2); experiment: Dose response counterscreen for EBI2 assay utilizing the enzyme, b-galactosidase.; assay type: functional
# Beta-galactosidase, sequence (Q8VNN2 whole entry): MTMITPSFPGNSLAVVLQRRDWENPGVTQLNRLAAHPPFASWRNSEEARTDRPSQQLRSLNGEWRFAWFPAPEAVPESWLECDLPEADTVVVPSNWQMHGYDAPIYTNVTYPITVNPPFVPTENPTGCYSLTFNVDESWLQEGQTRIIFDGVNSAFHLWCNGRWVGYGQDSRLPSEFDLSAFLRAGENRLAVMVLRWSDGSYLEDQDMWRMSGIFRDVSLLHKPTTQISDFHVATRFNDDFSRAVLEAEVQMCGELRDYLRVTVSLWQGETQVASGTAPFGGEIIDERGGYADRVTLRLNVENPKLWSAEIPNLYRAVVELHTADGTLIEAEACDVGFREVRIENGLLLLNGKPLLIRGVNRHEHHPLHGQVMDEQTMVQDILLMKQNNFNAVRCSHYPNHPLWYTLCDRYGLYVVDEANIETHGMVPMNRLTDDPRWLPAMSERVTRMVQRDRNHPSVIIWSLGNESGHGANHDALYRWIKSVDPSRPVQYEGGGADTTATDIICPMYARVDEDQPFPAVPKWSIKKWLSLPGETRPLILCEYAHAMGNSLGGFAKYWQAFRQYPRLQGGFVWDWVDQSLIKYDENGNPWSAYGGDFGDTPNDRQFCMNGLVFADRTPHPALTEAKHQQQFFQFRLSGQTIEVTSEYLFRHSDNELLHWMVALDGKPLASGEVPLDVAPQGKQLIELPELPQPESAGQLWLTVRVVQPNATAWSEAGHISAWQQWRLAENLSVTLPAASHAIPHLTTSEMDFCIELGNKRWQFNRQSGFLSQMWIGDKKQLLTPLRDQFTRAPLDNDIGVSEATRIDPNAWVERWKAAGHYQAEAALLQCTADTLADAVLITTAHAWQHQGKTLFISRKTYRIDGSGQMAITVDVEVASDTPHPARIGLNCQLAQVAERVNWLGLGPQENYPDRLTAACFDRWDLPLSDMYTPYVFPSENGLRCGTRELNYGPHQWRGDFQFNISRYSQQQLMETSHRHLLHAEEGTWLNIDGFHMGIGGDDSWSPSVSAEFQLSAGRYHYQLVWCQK
# [6] = Counterscreen for inhibitors of Trypanosoma brucei methionyl tRNA synthetase (MetRS): Luminescence-based cell-based high throughput dose response assay to identify compounds that are cytotoxic to Jurkat human T lymphocyte cells.; assay type: functional
# [7] = target: T1, Methionyl-tRNA synthetase, putative (Trypanosoma brucei brucei, UniProt Q38C91); assay type: functional, Trypanosoma brucei brucei strain 927/4 GUTat10.1;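 further: Read-out by fluorescence polarization, run as a confirmatory high-throughput counterscreen; potency of MetRS inhibitors measured by reduced AMP formation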
# T1 sequence (Q38C91 whole entry): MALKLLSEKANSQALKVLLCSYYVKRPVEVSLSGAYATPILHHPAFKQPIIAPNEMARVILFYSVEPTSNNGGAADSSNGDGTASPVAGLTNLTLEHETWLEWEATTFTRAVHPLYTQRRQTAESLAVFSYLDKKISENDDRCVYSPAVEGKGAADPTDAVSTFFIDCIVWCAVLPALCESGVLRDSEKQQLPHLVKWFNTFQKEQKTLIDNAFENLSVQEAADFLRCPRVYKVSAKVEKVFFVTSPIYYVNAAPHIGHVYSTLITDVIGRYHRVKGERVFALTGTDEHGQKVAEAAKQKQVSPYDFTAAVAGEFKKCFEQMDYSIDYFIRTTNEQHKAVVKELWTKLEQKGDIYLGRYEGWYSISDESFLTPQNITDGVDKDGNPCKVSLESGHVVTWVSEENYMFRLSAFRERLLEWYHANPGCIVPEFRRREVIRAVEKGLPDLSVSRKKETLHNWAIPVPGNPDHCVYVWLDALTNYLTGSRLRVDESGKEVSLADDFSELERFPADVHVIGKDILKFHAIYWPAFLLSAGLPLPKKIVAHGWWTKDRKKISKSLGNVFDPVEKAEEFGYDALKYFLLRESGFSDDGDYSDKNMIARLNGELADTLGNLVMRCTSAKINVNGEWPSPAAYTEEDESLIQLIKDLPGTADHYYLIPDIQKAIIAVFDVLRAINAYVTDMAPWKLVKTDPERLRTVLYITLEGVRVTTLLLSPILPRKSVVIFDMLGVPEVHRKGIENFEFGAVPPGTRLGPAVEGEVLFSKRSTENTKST
# [8] = target: Peroxisome proliferator-activated receptor gamma/Nuclear receptor coactivator 3 (Homo sapiens, UniProt P37231); assay type: functional;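 further: agonist potency for raising coactivator recruitment to the receptor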
# [9] = target: Peroxisome proliferator-activated receptor gamma/Nuclear receptor coactivator 2 (Homo sapiens, UniProt P37231); assay type: functional;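 further: agonist potency for raising coactivator recruitment to the receptor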
# [10] = target: Peroxisome proliferator-activated receptor gamma/Nuclear receptor coactivator 1 (Homo sapiens, UniProt P37231); assay type: functional;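 further: agonist potency as compounds enhance coactivator SRC-1 recruitment to PPARgamma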
# Peroxisome proliferator-activated receptor gamma/Nuclear receptor coactivator 1, sequence (P37231 whole entry): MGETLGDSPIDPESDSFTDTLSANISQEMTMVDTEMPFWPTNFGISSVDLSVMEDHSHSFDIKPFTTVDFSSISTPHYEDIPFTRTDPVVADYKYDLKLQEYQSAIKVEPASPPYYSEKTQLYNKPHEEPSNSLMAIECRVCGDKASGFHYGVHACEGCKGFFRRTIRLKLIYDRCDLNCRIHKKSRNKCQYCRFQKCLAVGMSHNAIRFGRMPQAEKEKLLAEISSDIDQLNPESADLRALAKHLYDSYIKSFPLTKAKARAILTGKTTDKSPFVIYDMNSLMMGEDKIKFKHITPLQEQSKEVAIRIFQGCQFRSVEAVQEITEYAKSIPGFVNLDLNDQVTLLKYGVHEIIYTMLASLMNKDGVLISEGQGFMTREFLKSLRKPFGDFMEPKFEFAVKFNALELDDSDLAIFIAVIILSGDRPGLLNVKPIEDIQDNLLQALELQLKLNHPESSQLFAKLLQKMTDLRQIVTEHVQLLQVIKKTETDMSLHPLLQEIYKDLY
# Peroxisome proliferator-activated receptor gamma/Nuclear receptor coactivator 1, sequence (Q15788 whole entry, further chain): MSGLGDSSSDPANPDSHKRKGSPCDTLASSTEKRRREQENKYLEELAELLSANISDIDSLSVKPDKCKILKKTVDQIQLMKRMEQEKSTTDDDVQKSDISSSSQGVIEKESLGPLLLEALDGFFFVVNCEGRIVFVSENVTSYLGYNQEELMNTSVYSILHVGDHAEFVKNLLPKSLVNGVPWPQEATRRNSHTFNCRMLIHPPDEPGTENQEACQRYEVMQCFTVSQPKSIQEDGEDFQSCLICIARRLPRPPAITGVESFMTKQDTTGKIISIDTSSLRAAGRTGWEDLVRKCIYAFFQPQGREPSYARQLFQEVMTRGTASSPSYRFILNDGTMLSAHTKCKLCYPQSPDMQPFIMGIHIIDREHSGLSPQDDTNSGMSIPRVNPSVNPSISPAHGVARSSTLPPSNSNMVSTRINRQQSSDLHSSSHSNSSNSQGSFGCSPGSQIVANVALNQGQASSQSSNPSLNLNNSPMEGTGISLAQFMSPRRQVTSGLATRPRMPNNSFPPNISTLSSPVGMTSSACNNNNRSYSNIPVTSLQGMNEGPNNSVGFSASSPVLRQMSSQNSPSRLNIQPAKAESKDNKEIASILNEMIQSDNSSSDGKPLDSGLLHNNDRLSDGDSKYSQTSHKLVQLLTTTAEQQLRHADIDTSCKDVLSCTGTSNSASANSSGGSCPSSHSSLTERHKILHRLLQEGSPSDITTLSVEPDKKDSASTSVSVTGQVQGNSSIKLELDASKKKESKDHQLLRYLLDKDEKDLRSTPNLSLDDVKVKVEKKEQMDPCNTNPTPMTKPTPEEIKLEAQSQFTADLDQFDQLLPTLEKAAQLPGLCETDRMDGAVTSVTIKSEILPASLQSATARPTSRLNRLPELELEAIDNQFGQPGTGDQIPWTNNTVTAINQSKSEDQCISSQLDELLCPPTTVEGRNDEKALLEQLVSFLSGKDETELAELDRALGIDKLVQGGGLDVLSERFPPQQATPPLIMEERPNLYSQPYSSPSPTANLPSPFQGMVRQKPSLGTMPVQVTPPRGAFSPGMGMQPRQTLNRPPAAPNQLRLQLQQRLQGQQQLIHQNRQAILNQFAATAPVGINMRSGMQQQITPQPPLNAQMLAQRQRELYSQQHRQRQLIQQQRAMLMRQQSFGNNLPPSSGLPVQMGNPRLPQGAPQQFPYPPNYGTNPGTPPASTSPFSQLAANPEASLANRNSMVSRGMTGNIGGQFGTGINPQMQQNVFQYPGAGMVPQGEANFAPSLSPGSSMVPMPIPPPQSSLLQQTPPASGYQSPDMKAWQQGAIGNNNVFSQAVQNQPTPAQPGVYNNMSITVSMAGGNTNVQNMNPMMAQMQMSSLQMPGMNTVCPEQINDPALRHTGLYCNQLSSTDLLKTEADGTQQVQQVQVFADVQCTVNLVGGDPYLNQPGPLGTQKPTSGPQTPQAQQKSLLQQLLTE
# Estrogen receptor beta [11] = target: T2, Estrogen receptor beta (Homo sapiens, UniProt Q92731); experiment: blockers of SRC-3 recruitment to ERβ – biochemical, ELISA, streptavidin-HRP readout, orthogonal assay, confirmation (AID 1060)
# T2 sequence (Q92731 whole entry): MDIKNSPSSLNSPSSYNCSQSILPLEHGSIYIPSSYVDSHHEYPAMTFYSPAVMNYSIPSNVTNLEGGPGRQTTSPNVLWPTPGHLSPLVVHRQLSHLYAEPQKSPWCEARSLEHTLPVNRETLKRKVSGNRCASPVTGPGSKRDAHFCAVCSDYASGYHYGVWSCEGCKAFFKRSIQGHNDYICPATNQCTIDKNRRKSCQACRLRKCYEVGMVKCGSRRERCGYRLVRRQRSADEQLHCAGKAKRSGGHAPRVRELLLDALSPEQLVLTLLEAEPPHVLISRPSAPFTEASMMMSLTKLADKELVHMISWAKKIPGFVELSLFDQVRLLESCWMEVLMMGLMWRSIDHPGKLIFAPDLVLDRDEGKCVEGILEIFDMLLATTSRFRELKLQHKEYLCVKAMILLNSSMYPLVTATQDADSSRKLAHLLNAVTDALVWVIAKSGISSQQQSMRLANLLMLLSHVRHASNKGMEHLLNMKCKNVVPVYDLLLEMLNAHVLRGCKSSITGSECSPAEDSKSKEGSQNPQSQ
# Cytochrome P450 2C9 = Cytochrome P450 2C9 (Homo sapiens, UniProt P11712)
# Cytochrome P450 2C9, sequence (P11712 whole entry): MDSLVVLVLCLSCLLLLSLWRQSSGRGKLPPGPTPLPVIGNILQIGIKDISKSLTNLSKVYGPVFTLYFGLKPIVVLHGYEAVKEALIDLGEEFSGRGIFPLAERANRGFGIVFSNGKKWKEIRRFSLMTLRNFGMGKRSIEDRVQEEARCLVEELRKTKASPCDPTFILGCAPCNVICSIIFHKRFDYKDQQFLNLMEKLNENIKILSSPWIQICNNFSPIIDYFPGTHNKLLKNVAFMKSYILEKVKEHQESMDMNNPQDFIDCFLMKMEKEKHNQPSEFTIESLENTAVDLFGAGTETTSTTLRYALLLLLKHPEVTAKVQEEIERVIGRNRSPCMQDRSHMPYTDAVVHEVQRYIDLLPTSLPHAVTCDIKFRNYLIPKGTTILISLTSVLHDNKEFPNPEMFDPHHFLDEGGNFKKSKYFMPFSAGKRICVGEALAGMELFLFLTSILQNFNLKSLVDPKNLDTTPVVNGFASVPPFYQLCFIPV
# Estrogen receptor beta [12] = target: T2, Estrogen receptor beta
# Estrogen receptor = target: T3, Estrogen receptor (Homo sapiens, UniProt P03372);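 further: potency for inhibiting coactivator peptide recruitment to the receptor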
# T3 sequence (P03372 whole entry): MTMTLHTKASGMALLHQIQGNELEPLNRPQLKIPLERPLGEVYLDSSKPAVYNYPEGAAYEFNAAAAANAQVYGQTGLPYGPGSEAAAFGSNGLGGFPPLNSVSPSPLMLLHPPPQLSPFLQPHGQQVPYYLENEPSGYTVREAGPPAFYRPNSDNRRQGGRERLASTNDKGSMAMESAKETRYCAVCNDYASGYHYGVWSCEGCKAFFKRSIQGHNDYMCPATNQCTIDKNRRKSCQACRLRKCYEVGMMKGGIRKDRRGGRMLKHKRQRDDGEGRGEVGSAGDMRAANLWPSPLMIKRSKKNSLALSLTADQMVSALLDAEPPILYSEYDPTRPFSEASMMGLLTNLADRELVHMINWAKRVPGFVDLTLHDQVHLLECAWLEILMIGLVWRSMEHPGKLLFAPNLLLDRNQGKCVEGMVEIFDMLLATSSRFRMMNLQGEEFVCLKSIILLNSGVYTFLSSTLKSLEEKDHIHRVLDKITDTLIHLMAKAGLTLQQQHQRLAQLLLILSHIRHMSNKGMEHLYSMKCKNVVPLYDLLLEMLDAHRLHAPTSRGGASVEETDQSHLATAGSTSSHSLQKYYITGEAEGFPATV
# [13] = fluconazole-exposed Candida albicans growth modulators – fluorescence, retest, confirmation (AID 2467); assay type: functional, cell-based
# [14] = NIH-3T3 fibroblast cytotoxicity, dose response, cytotoxicity control, cell-based, fluorescence, Alamar Blue, secondary assay (AID 2327); assay type: functional;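 further: NIH-3T3 mouse fibroblasts cultured with fluconazole at 8 µg/mL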
# [15] = HIV-1 Vif–A3G interaction blockers – biochemical, TR-FRET, GST-Vif 1-94, biotin-A3G peptide, dose response retest, primary screen (AID 1117319); assay type: functional;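 further: TR-FRET signal of purified GST-Vif binding a biotinylated A3G peptide; inhibitors lower the FRET signal by blocking Vif and A3G binding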
# [16] = target: DNA dC->dU-editing enzyme APOBEC-3G (Homo sapiens, UniProt Q9HC16); assay type: functional;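 further: Dose-response counterscreen measuring inhibition of APOBEC3G DNA deaminase activity, run while confirming APOBEC3A inhibitors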
# DNA dC->dU-editing enzyme APOBEC-3G, sequence (Q9HC16 whole entry): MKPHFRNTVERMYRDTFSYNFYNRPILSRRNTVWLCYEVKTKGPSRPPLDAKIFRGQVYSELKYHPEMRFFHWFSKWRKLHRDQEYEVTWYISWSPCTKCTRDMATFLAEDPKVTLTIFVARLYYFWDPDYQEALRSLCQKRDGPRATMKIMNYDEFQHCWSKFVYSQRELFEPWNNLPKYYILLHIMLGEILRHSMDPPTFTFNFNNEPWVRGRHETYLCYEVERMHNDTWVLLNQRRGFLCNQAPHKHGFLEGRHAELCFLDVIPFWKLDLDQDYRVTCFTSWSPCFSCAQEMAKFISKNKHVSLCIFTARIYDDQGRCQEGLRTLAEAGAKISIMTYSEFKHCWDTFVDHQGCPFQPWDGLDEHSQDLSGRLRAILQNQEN
# [17] = target: DNA dC->dU-editing enzyme APOBEC-3A (Homo sapiens, UniProt P31941); experiment: Dose Response confirmation of small molecule APOBEC3A DNA Deaminase Inhibitors via a fluorescence-based single-stranded DNA deaminase assay. [Related pubchem assays (depositor defined):AID493011, AID493024]; assay type: functional
# [18] = target: T4, DNA repair and recombination protein RAD54-like (Homo sapiens, UniProt Q92698); experiment: RAD54 Holliday junction migration blockers – biochemical, fluorescence, cherry-picked samples, dose series, confirmation (AID 651657); assay type: functional
# T4 sequence (Q92698 whole entry): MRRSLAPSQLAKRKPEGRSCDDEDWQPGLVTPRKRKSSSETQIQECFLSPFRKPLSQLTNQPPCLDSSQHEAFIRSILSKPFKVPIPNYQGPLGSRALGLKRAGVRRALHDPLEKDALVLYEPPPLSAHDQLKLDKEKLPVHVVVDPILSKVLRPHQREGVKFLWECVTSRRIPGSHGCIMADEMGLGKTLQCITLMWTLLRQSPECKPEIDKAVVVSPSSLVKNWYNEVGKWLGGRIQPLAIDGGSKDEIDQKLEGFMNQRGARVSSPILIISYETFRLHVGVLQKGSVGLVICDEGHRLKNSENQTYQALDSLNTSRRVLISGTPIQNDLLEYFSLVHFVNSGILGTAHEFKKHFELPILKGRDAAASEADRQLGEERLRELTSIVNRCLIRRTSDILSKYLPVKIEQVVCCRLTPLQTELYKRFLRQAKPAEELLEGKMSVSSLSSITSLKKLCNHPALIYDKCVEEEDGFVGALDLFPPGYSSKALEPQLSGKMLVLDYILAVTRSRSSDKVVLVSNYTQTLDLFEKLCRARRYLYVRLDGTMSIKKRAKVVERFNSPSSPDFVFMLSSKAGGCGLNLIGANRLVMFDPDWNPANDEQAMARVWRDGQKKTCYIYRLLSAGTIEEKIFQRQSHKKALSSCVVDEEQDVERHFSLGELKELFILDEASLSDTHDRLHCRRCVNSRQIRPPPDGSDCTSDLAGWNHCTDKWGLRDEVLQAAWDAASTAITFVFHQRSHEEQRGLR
# [19] = target: T5, DNA repair protein RAD52 homolog (Homo sapiens, UniProt P43351); assay type: functional, biochemical
# T5 sequence (P43351 whole entry): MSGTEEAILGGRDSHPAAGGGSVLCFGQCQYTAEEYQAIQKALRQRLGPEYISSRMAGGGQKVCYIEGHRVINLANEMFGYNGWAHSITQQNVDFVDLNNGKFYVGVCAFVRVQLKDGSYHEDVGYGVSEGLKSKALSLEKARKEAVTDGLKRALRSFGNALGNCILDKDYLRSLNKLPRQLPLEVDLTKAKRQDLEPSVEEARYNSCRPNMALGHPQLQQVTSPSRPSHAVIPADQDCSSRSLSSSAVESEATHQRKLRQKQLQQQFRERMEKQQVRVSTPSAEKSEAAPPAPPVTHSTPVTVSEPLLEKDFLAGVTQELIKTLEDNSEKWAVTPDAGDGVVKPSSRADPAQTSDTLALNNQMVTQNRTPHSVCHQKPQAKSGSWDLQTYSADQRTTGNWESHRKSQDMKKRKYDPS
# [20] = blockade of melanocortin 4 receptor signaling – cell-based, plate reader, cherry pick, counter-screen for LGR2 antagonist project, dose response (AID 743444); assay type: functional;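 further: transfected HEK 293 cells stimulated with alpha-MSH peptide; potency of inhibitors of the alpha-MSH evoked signal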
# [21] = blockers of bursicon-stimulated LGR2 cAMP reporter – cell-based, HEK293, CRE-luciferase reporter, cherry pick, set 2, dose response (AID 743343); assay type: functional;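 further: transfected cells were stimulated with diluted bursicon conditioned medium after compound addition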
# [22] = toxicity toward HepG2 liver cells – cell-based, plate reader, cherry-pick, antagonist series, cytotoxicity control, dose response (AID 743416); assay type: functional
# [23] = target: T6, Ubiquitin-conjugating enzyme E2 N (Homo sapiens, UniProt P61088); assay type: functional;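 further: Dose-response confirmation in a TR-FRET assay detecting UBC13-driven polyubiquitin chain formation, inhibition measured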
# T6 sequence (P61088 whole entry): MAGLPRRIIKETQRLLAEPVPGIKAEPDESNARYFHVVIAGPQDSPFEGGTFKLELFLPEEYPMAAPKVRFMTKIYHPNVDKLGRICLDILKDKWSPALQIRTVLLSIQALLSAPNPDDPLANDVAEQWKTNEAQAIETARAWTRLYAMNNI
compound,measurement,setting,value
O=c1c2ccccc2nc(/C=C/c2ccccc2O)n1-c1ccccc1O,IC50,Vero [1],> 25 µM (active)
same,CC50,[2],8.96 µM (active)
same,CC50,Vero [3],20.4 µM (active)
C[C@@H]1CN([C@@H](C)CO)C(=O)c2cccc(NC(=O)Nc3ccc(C(F)(F)F)cc3)c2O[C@H]1CN(C)S(=O)(=O)c1cccs1,AC50,[4],4.64 µM (active)
CCN(CC)S(=O)(=O)c1ccc(C(=O)NCCSc2c[nH]c3ccccc23)cc1,EC50,[5],3.87 µM (active)
O=C(COc1ccc(Br)cc1)N1CCC(c2ccccc2)C1 (centres undefined),AC50,Cytochrome P450 3A4,28.2 µM (inconclusive)
same,IC50,Beta-galactosidase,> 80 µM (inactive)
Cc1csc(CNc2ncnc3ccc(-c4ccccc4Cl)cc23)c1,IC50,[6],83.3 µM (inactive)
same,IC50,[7],97.8 µM (inactive)
CCN(CC)CCN(Cc1cc2cc3c(cc2[nH]c1=O)OCCO3)C(=O)NC1CCCCC1,EC50,[8],> 79.4 µM (not active)
same,EC50,[9],> 79.4 µM (not active)
same,EC50,[10],> 79.4 µM (not active)
O=C1NC(c2ccc(Br)cc2)Nc2sc3c(c21)CCC3 (centres undefined),AC50,Cytochrome P450 3A4,28.2 µM (inconclusive)
same,IC50,Estrogen receptor beta [11],< 0.023 µM (not active)
same,AC50,Cytochrome P450 2C9,6.31 µM (inconclusive)
same,IC50,Estrogen receptor beta [12],> 50 µM (not active)
same,IC50,Estrogen receptor,19.4 µM (active)
O=C(/C=C/c1ccc(F)cc1)N1CCN(c2ccccn2)CC1,EC50,[13],2.94 µM (active)
same,IC50,Beta-galactosidase,> 80 µM (inactive)
same,EC50,[14],> 160 µM (inactive)
CC1=CCC(/C=N\Nc2n[nH]c3c4ccccc4nc-3n2)CC1 (centres undefined),IC50,[15],> 100 µM (active)
C[C@@H]1CCCCO[C@@H](CN(C)CC2CCCCC2)[C@@H](C)CN([C@H](C)CO)C(=O)c2cc(NC(=O)Nc3cccc4ccccc34)ccc2O1,AC50,[4],0.757 µM (active)
Cc1ccc(C)c(SCC(=O)OCC(=O)c2ccco2)c1,IC50,Estrogen receptor beta [11],0.0912 µM (not active)
same,IC50,Estrogen receptor beta [12],6.74 µM (active)
same,IC50,[16],46.3 µM (active)
same,IC50,Estrogen receptor,> 50 µM (not active)
same,IC50,[17],18 µM (active)
Cc1[nH]c(-c2ccc(F)cc2)cc1C(=O)N1CCN(c2ccccc2F)CC1,IC50,Beta-galactosidase,> 80 µM (inactive)
N=c1c(C(=O)NCCN2CCOCC2)cc2c(=O)n3ccccc3nc2n1CCCN1CCOCC1,AC50,[18],11.5 µM (active)
same,AC50,[19],5.36 µM (active)
CCOC(=O)c1sc(NC(=O)CSc2nnnn2-c2ccc(C)c(C)c2)nc1C,EC50,[8],> 79.4 µM (not active)
same,EC50,[9],77.4 µM (not active)
same,EC50,[10],> 79.4 µM (not active)
CC1CCCN(c2ncnc3c2cnn3-c2ccccc2)C1 (centres undefined),AC50,[20],6.32 µM (active)
same,AC50,[21],2.89 µM (active)
same,AC50,[22],> 52 µM (inactive)
Fc1ccccc1CSc1nc2ncc(Br)cc2[nH]1,IC50,[7],82.2 µM (inactive)
same,EC50,[8],49.5 µM (not active)
same,EC50,[9],24.2 µM (not active)
same,EC50,[10],36.8 µM (not active)
CC(=O)/C(C#N)=C1\NC(=O)C(Cc2ccc(C)c(Cl)c2)S1 (centres undefined),IC50,Vero [1],6.72 µM (active)
same,CC50,Vero [3],20.6 µM (active)
CC(C)n1c(CCC(=O)O)ccc1-c1ccccc1,IC50,[15],> 100 µM (active)
C[C@H](CO)N1C[C@H](C)[C@@H](CN(C)S(=O)(=O)c2ccc(Cl)cc2)Oc2c(NC(=O)Nc3ccccc3)cccc2C1=O,AC50,[4],6.84 µM (active)
Cc1ccc(C(C)C)c(OCCN(C)C)c1,IC50,[15],> 100 µM (active)
CCOC(=O)c1s/c(=N\C(=O)c2cccc(OC)c2)n(C)c1C,EC50,[8],15.2 µM (not active)
same,EC50,[9],10.5 µM (not active)
same,EC50,[10],11 µM (not active)
CCCCN(CC)CCNC(=O)c1cc2c(=O)n(C)c3ccccc3c2n1C,AC50,[18],32.3 µM (active)
same,IC50,[23],> 20 µM (inactive)
CCOC(=O)CN1C(=O)C(Sc2n[nH]c(-c3ccccc3)n2)CCc2ccccc21 (centres undefined),IC50,[15],> 100 µM (active)
Cc1ccc(S(=O)(=O)Nc2ccc3c(c2)CC(=O)N([C@H](C)CO)C[C@@H](C)[C@H](CN(C)Cc2ccccc2)O3)cc1,AC50,[4],1.79 µM (active)
O=C1C=C(Nc2ccc(Cl)cc2)CC(c2ccc(Cl)cc2)C1 (centres undefined),AC50,Cytochrome P450 3A4,20 µM (inconclusive)
same,IC50,Beta-galactosidase,> 80 µM (inactive)
